Assay results published in ChEMBL document CHEMBL3822379, “Development of novel 1,4-benzodiazepine-based Michael acceptors as antitrypanosomal agents” (Bioorg Med Chem Lett, 2016).

What was measured:
[1] = molecular target: Rhodesain (Trypanosoma brucei rhodesiense) (UniProt Q95PM0); test: Inhibition of Trypanosoma brucei rhodesiense rhodesain expressed in Pichia pastoris X33 at 100 uM using Cbz-Phe-Arg-AMC as substrate measured over 10 mins by fluorescence microplate reader analysis
[2] = system: Trypanosoma brucei brucei; test: Antitrypanosomal activity against trypomastigote form of Trypanosoma brucei brucei TC 221 after 24 hrs by alamar blue assay; format: functional, organism-based; settings: TC 221, 24 h
[3] = Cytotoxicity against mouse J774.1 cells incubated for 24 hrs by alamar blue assay; format: cell-based; settings: read-out: TC50

Chain of Rhodesain (Trypanosoma brucei rhodesiense) (Q95PM0 1-450): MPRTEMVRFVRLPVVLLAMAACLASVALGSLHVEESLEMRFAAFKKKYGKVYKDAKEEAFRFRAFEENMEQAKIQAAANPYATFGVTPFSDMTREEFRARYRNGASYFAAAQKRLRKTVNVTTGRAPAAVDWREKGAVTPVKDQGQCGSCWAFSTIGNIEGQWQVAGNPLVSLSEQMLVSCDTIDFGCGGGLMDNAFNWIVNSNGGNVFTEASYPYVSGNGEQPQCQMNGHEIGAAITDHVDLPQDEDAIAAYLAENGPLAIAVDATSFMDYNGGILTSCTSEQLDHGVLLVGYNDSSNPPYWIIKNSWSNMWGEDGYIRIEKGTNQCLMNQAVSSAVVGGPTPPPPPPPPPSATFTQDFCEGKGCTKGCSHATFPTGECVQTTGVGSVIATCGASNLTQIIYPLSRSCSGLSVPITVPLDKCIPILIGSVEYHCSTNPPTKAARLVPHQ

Row | SMILES | inhibition [1] | IC50 [2] | CC50 at 24 h [3]
1 | COC(=O)/C=C\CCN1C(=O)CN=C(c2ccccc2)c2ccccc21 | 27% | > 40 µM | –
2 | CC(=O)/C=C/CCCCN1C(=O)CN=C(c2ccccc2)c2ccccc21 | 27% | 13.1 µM | –
3 | CC(=O)/C=C/CCCN1C(=O)CN=C(c2ccccc2)c2ccccc21 | 27% | 4.6 µM | 31.8 µM
4 | CC(=O)/C=C/CCN1C(=O)CN=C(c2ccccc2)c2ccccc21 | 27% | 5.3 µM | > 100 µM
5 | N#C/C=C\CCN1C(=O)CN=C(c2ccccc2)c2ccccc21 | 27% | > 40 µM | –
6 | COC(=O)/C=C/CCCCN1C(=O)CN=C(c2ccccc2)c2ccccc21 | 27% | 15.9 µM | –
7 | COC(=O)/C=C/CNC(=O)CN1C(=O)[C@@H](COC(=O)NC23CC4CC(CC(C4)C2)C3)N=C(c2ccccc2)c2ccccc21 | – | 4.8 µM | –
8 | COC(=O)/C=C/CCCN1C(=O)CN=C(c2ccccc2)c2ccccc21 | 27% | 23.5 µM | –
9 | N#C/C=C\CCCCN1C(=O)CN=C(c2ccccc2)c2ccccc21 | 27% | 14.5 µM | –
10 | N#C/C=C\CCCN1C(=O)CN=C(c2ccccc2)c2ccccc21 | 27% | > 40 µM | –
